The values that follow come from US9670545B2, “Methods and kits for treating and classifying individuals at risk of or suffering from TRAP1 change-of-function” (Courtagen Life Sciences, Inc., priority 2013, dated 2017).

This test has as its system patient with I253V in the TRAP1 ATPase domain. In words: Case Report 1: clinical response of a patient with I253V in the TRAP1 ATPase domain to supplementation. It is filed as in vivo, human. As to conditions: single patient. Here is the method: A person was referred to the inventors because of a failure-to-thrive and hypoglycemia. Additional problems included constipation, temperature instability, tachycardia, delayed gastric emptying (confirmed by Scintiscan), almost-daily pain (headaches, abdominal pain, leg cramps), chronic fatigue (sleeping up to 22 hours a day), anemia (requiring multiple transfusions), repetitive episodes of right arm dyskinesia (2 minutes each, twice a week), and neurodevelopmental issues (gross motor delay, auditory processing problem, and memory defects, but cognitive delay is only 6 months). […] Episodic dyskinesia later resolved with L-arginine supplementation. However, gastrointestinal dysfunction worsened, necessitating a gastrostomy tube, followed by a jejunostomy tube. […] Pertinent results of an extensive work-up include normal brain MR, normal video-EEG, severe free carnitine deficiency (<4 micromolar, normal >19; total carnitine 17), trace elevations on urine organic acids, respiratory alkalosis (hyperventilation), and hypoglycemia (even while receiving adequate jejunal feeds or parental nutrition). […] After finding the I253V in the TRAP1 ATPase domain, antioxidant therapy was intensified, and results are pending.

Each structure is given as a SMILES string.

`N=C(N)NCCC[C@H](N)C(=O)O` [L-arginine]: the “Episodic dyskinesia (repetitive episodes of right arm dyskinesia)” value is “resolved”.
